Data from patent publication US8865748B2, “Compounds and compositions for stabilizing hypoxia inducible factor-2 alpha as a method for treating cancer” (Akebia Therapeutics Inc., priority 2011, dated 2014).

Key:
VEGF [1] = test: VEGF mRNA within B16F10 tumors (real-time PCR); format: in vivo, mice; conditions: FIG. 13B; p=0.490
Protocol: (§1) Human monocytes were left untreated or were stimulated with 100 ng/mL GM-CSF at normoxia or at 0.5% O2. At various time-points, cells were harvested in Trizol reagent (Invitrogen) and RNA was extracted in chloroform and then purified using the RNeasy Minikit (Qiagen). In murine studies, organs harvested at the time of euthanasia were flash-frozen in liquid nitrogen, pulverized in liquid nitrogen, and then dissolved in Trizol. cDNA was generated from 1 μg of RNA using the Superscript First Strand Synthesis System (Invitrogen) and used for real-time PCR using previously described primers and SYBR Green PCR Master Mix (Applied Biosciences), according to the manufacturer's instructions. Data were analyzed according to the comparative threshold method and normalized against the β-actin internal control transcript. Results are semi-quantitative and represent the fold difference in transcript levels in a particular sample as compared with levels in untreated cells from the same donor.
6-8-week-old C57BL/6 mice were injected with 1×10^5 B16F10 murine melanoma cells murine subcutaneously on the left flank. […] Tumor diameters were measured 3 times per week with calipers, and tumor volumes will be calculated as follows: Tumor volume=0.5×[(large diameter)×(small diameter)^2]. […]

sVEGFR-1 = sVEGFR-1 production by human peripheral blood monocytes (ELISA, real-time PCR); format: cell-based; conditions: GM-CSF stimulation; FIG. 11D
Protocol: (§2) Human peripheral blood mononuclear cells (PBMCs) were isolated from fresh peripheral blood leukocyte source packs (American Red Cross, Columbus Ohio) by density gradient centrifugation over Lymphocyte Separation Medium (Cellgro). Monocytes were purified from total PBMCs by layering over FBS. Monocytes were cultured in endotoxin-free RPMI-1640 supplemented with 1% fetal bovine serum (FBS), 0.1% human serum albumin (HSA), and 10 μg/mL of the endotoxin inhibitor polymyxin B. In some experiments, freshly isolated monocytes were differentiated into macrophages by three-day culture in media containing 10% FBS, 1% PSA (penicillin G sodium, streptomycin sulfate, and amphotericin B), and 20 ng/mL M-CSF. Macrophages were serum-starved for 2 hours prior to stimulation. Monocytes or monocyte-derived macrophages were treated for 24 hours with 10 ng/mL GM-CSF, 10 μM disclosed HIF-2α stabilizer, or an equivalent volume of the vehicle controls (PBS or DMSO, respectively). Cell-free culture supernatants were harvested and analyzed for VEGF or sVEGFR-1 by ELISA (R&D Systems).
Human monocytes were left untreated or were stimulated with 100 ng/mL GM-CSF at normoxia or at 0.5% O2. At various time-points, cells were harvested in Trizol reagent (Invitrogen) and RNA was extracted in chloroform and then purified using the RNeasy Minikit (Qiagen). […] Data were analyzed according to the comparative threshold method and normalized against the β-actin internal control transcript. Results are semi-quantitative and represent the fold difference in transcript levels in a particular sample as compared with levels in untreated cells from the same donor.
Since monocyte production of VEGF was dependent on HIF-1α, the inventors herein determined whether selective stabilization of HIF-1α via inhibition of PHD2 would increase monocyte production of VEGF but not sVEGFR-1. […]

B16F10 melanoma tumors = test: Murine melanoma tumor model (B16F10 in C57BL/6 mice); format: in vivo
Protocol: Mice were injected with 1×10^5 B16F10 murine melanoma cells murine subcutaneously on the left flank. Once tumors become palpable (approximately 5 days), mice were randomly allocated to receive treatment with either: 20% polyethylene glycol (PEG) in 5% […] (vehicle control for the disclosed HIF-2α stabilizer) and PBS (vehicle control for GM-CSF), 20% PEG and GM-CSF (100 ng per mouse in a 50 μL volume), the disclosed HIF-2α stabilizer (17.5 mg/kg in a 100 μL volume) and PBS, or the disclosed HIF-2α stabilizer and GM-CSF (same doses). The PBS and GM-CSF were administered intratumorally, while the 20% PEG and the disclosed HIF-2α stabilizer were administered intraperitoneally. Mice were treated 3 times per week until tumors reached a size of 20 mm in any dimension (approximately 2.5 weeks), at which point mice were euthanized, in accordance with institutional policy. Tumor diameters were measured 3 times per week with calipers, and tumor volumes were calculated as follows: Tumor volume=0.5×[(large diameter)×(small diameter)^2].
6-8-week-old C57BL/6 mice were injected with 1×10^5 B16F10 murine melanoma cells murine subcutaneously on the left flank. Once tumors become palpable (approximately 5 days), mice were randomly allocated to receive treatment with either: 20% PEG-400 in 5% sucrose (vehicle for disclosed HIF-2α stabilizer) and PBS (vehicle for GM-CSF), 20% PEG-400 and GM-CSF (100 ng per mouse in a 50 μL volume), disclosed HIF-2α stabilizer (17.5 mg/kg mouse weight in a 100 μL volume) and PBS, or the disclosed HIF-2α stabilizer and GM-CSF (same concentrations). The disclosed HIF-2α stabilizer (or the vehicle control) was administered intraperitoneally, while GM-CSF (or the vehicle control) was administered intratumorally. Mice were treated […] 3 times per week until tumors reached a size of 20 mm in any dimension (approximately 2.5 weeks), at which point mice were be euthanized, in accordance with institutional policy. Tumor diameters were measured 3 times per week with calipers, and tumor volumes will be calculated as follows: Tumor volume=0.5×[(large diameter)×(small diameter)^2]. For experiments analyzing the effect of neutralizing sVEGFR-1 in combination with disclosed HIF-2α stabilizer treatment, mice were treated intraperitoneally 3×/week with either disclosed HIF-2α stabilizer or vehicle control, and intratumorally with either 4 μg anti-VEGFR-1 neutralizing antibody (R&D Systems) or 4 μg polyclonal goat IgG isotype control (Santa Cruz Biotechnology) in a 50 μL volume. All protocols were approved by the Ohio State University Animal Care and Use Committee, and mice were treated in accordance with institutional guidelines for animal care.
The ANOVA test was used to compare independent measurements between multiple treatment groups. The data was log-transformed to normalize the variance across groups. P-values were adjusted using the Holm's procedure to conserve the type I error at 0.05 due to the multiple comparisons. For tumor growth data, changes in tumor volume over time were assessed via a longitudinal model. Tumor values were log-transformed, and estimated slopes (changes in tumor volume over time) were calculated with 95% confidence intervals. Estimated differences in tumor volume were calculated by a random-effects regression of the longitudinal data. For all analyses, p≦0.05 was considered statistically significant.
To confirm that the modulation of tumor growth and angiogenesis was due to sVEGFR-1 production in response to the disclosed HIF-2α stabilizer, mice were treated with the disclosed HIF-2α stabilizer in the presence or absence of an sVEGFR-1 neutralizing Ab.
6-8-week-old C57BL/6 mice or SCID mice were injected with 1×10^5 B16F10 murine melanoma cells or 1×10^6 A375 human melanoma cells, respectively, subcutaneously on the left flank. […]

VEGF [2] = test: VEGF production by human peripheral blood monocytes (ELISA, real-time PCR); format: cell-based; conditions: FIG. 11C
Protocol: as §2, §1
VEGF protein was undetectable in the supernatants of GM-CSF-stimulated monocytes, due to neutralization of VEGF by sVEGFR-1 (FIG. 11C).
Since monocyte production of VEGF was dependent on HIF-1α, the inventors herein determined whether selective stabilization of HIF-1α via inhibition of PHD2 would increase monocyte production of VEGF but not sVEGFR-1. In order to make such determination, human peripheral blood monocytes were stimulated with GM-CSF in the presence of a selective inhibitor of PHD2 which results in the stabilization of HIF-1α.

For “GM-CSF: granulocyte-macrophage colony-stimulating factor”, the “levels of intratumoral VEGF over vehicle control-treated mice” value (VEGF [1]) was “failed to increase”, the “monocyte production of sVEGFR-1” value (sVEGFR-1) was “induced” and the “tumor growth (tumor volume)” value (B16F10 melanoma tumors; FIG. 3, stabilizer 17 mg/kg I.P., GM-CSF 100 ng per mouse I.T., 3 times per week, vs. PBS control) was “reduction in tumor volume”. For the same substance, the “tumor volume reduction, GM-CSF administered I.T. vs. I.P.” value (B16F10 melanoma tumors; FIG. 4, stabilizer 17 mg/kg delivered I.P. in all cases, no control group) was “greater reduction of tumor volume”, the “average tumor volumes vs. vehicle controls” value (B16F10 melanoma tumors; day 16 of treatment, GM-CSF 100 ng/mouse intratumoral or stabilizer 17.5 mg/kg intraperitoneal, 3x/week, each p<0.001) was “significantly smaller” and the “VEGF production, transcript levels by real-time PCR” value (VEGF [2]; GM-CSF stimulation) was “increased”. The “VEGF protein in supernatants” value (VEGF [2]; GM-CSF-stimulated monocytes, ELISA detects free VEGF only) was “undetectable”.
